From patent US20170334899A1, “AMINO-SUBSTITUTED ISOTHIAZOLES” (Bayer Pharma Aktiengesellschaft, priority 2014, published 2017)

Columns and labels:
HeLa = experiment: Proliferation assay (crystal violet), HeLa; type: cell-based; conditions: Homo sapiens, HeLa, 96 h, HeLa cells; 4 days incubation; crystal violet staining; read-out: IC50 inhibition of proliferation, HeLa
Procedure, shortened: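 Crystal violet proliferation readout, 4-day compound incubation, 0.001–10 μM, final DMSO 0.5%. Zero-point plate stained at time of dosing set as 0%, untreated control as 100%; IC50 via 4-parameter fit.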

[1] = system: human cervical tumor cell line HeLa (ATCC CCL-2); experiment: SAC-Formation - Paclitaxel-Induced Assay; type: cell-based; conditions: Homo sapiens, HeLa, 24 h, HeLa cells, paclitaxel 0.05 μM, test range 0.005 μM-20 μM, read-out: IC50 [mol/l] SAC-Formation - Paclitaxel-Induced Assay
Procedure, shortened: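 Read-out is high-content imaging of anti-phospho-H3 Ser10 (mitosis) and Hoechst 33342 (DNA, cell number), with decreased mitotic fraction marking checkpoint breakthrough. Compounds (0.005–20 μM) and 0.05 μM paclitaxel co-added to overnight-plated HeLa for 24 h at 37° C; four-parameter Hill fit.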

| SMILES | IC50 (HeLa) | IC50 [1] |
| --- | --- | --- |
| Cc1nsc(Nc2cnc(C(F)(F)F)cn2)c1C(=O)Nc1ccc(N2CCN(CC(F)(F)F)CC2)nc1 [Example 360, 3-methyl-N-{6-[4-(2,2,2-trifluoroethyl)piperazin-1-yl]pyridin-3-yl}-5-{[5-(trifluoromethyl)pyrazin-2-yl]amino}-1,2-thiazole-4-carboxamide] | 350 nM | 75 nM |
| Cc1nsc(Nc2cnc(C(F)(F)F)cn2)c1C(=O)Nc1ccc(N2CCN(CCC(F)(F)F)CC2)nc1 [Example 361, 3-methyl-5-{[5-(trifluoromethyl)pyrazin-2-yl]amino}-N-{6-[4-(3,3,3-trifluoropropyl)piperazin-1-yl]pyridin-3-yl}-1,2-thiazole-4-carboxamide] | 380 nM | 120 nM |
| Cc1nsc(Nc2cnc(C(F)(F)F)cn2)c1C(=O)Nc1ccc(O[C@H]2CCN(CC(F)F)C[C@@H]2F)nc1 [Example 362] | 340 nM | 59 nM |
| Cc1nsc(Nc2cnc(C(F)(F)F)cn2)c1C(=O)Nc1ccc(O[C@H]2CCN(CC(F)(F)F)C[C@@H]2F)nc1 [Example 363, N-(6-{[(3S,4S)-3-fluoro-1-(2,2,2-trifluoroethyl)piperidin-4-yl]oxy}pyridin-3-yl)-3-methyl-5-{[5-(trifluoromethyl)pyrazin-2-yl]amino}-1,2-thiazole-4-carboxamide] | 340 nM | 47 nM |
| Cc1nsc(Nc2cnc(C(F)(F)F)cn2)c1C(=O)Nc1ccc(O[C@H]2CCN(CCC(F)(F)F)C[C@@H]2F)nc1 [Example 364, N-(6-{[(3S,4S)-3-fluoro-1-(3,3,3-trifluoropropyl)piperidin-4-yl]oxy}pyridin-3-yl)-3-methyl-5-{[5-(trifluoromethyl)pyrazin-2-yl]amino}-1,2-thiazole-4-carboxamide] | 290 nM | 40 nM |
| CCN1CC[C@H](Oc2ccc(NC(=O)c3c(C)nsc3Nc3cnc(C(F)(F)F)cn3)cn2)[C@@H](F)C1 [Example 365, N-(6-{[(3S,4S)-1-ethyl-3-fluoropiperidin-4-yl]oxy}pyridin-3-yl)-3-methyl-5-{[5-(trifluoromethyl)pyrazin-2-yl]amino}-1,2-thiazole-4-carboxamide] | 410 nM | 150 nM |
| Cc1nsc(Nc2cnc(C(F)(F)F)cn2)c1C(=O)Nc1ccc(O[C@@H]2CCN(CC(F)F)C[C@H]2F)nc1 [Example 366, N-(6-{[(3R,4R)-1-(2,2-difluoroethyl)-3-fluoropiperidin-4-yl]oxy}pyridin-3-yl)-3-methyl-5-{[5-(trifluoromethyl)pyrazin-2-yl]amino}-1,2-thiazole-4-carboxamide] | 300 nM | 98 nM |
| Cc1nsc(Nc2cnc(C(F)(F)F)cn2)c1C(=O)Nc1ccc(O[C@@H]2CCN(CC(F)(F)F)C[C@H]2F)nc1 [Example 367, N-(6-{[(3R,4R)-3-fluoro-1-(2,2,2-trifluoroethyl)piperidin-4-yl]oxy}pyridin-3-yl)-3-methyl-5-{[5-(trifluoromethyl)pyrazin-2-yl]amino}-1,2-thiazole-4-carboxamide] | 300 nM | 37 nM |
| Cc1nsc(Nc2cnc(C(F)(F)F)cn2)c1C(=O)Nc1ccc(O[C@@H]2CCN(CCC(F)(F)F)C[C@H]2F)nc1 [Example 368, N-(6-{[(3R,4R)-3-fluoro-1-(3,3,3-trifluoropropyl)piperidin-4-yl]oxy}pyridin-3-yl)-3-methyl-5-{[5-(trifluoromethyl)pyrazin-2-yl]amino}-1,2-thiazole-4-carboxamide] | 350 nM | 64 nM |
| CCN1CC[C@@H](Oc2ccc(NC(=O)c3c(C)nsc3Nc3cnc(C(F)(F)F)cn3)cn2)[C@H](F)C1 [Example 369, N-(6-{[(3R,4R)-1-ethyl-3-fluoropiperidin-4-yl]oxy}pyridin-3-yl)-3-methyl-5-{[5-(trifluoromethyl)pyrazin-2-yl]amino}-1,2-thiazole-4-carboxamide] | 390 nM | 150 nM |
| CCCN1CC[C@H](Oc2ccc(NC(=O)c3c(C)nsc3Nc3cnc(C(F)(F)F)cn3)cn2)[C@@H](F)C1 [Example 370, N-(6-{[(3S,4S)-3-fluoro-1-propylpiperidin-4-yl]oxy}pyridin-3-yl)-3-methyl-5-{[5-(trifluoromethyl)pyrazin-2-yl]amino}-1,2-thiazole-4-carboxamide] | 300 nM | 31 nM |
| CCCN1CC[C@@H](Oc2ccc(NC(=O)c3c(C)nsc3Nc3cnc(C(F)(F)F)cn3)cn2)[C@H](F)C1 [Example 371, N-(6-{[(3R,4R)-3-fluoro-1-propylpiperidin-4-yl]oxy}pyridin-3-yl)-3-methyl-5-{[5-(trifluoromethyl)pyrazin-2-yl]amino}-1,2-thiazole-4-carboxamide] | 320 nM | 51 nM |
| Cc1nsc(Nc2cnc(C(F)(F)F)cn2)c1C(=O)Nc1ccc(N2CCN(CC(F)F)CC2)cn1 [Example 372, N-{5-[4-(2,2-difluoroethyl)piperazin-1-yl]pyridin-2-yl}-3-methyl-5-{[5-(trifluoromethyl)pyrazin-2-yl]amino}-1,2-thiazole-4-carboxamide] | 1500 nM | 330 nM |
| Cc1nsc(Nc2cnc(C(F)(F)F)cn2)c1C(=O)Nc1ccc(N2CCN(CC(F)(F)F)CC2)cn1 [Example 373, 3-methyl-N-{5-[4-(2,2,2-trifluoroethyl)piperazin-1-yl]pyridin-2-yl}-5-{[5-(trifluoromethyl)pyrazin-2-yl]amino}-1,2-thiazole-4-carboxamide] | 810 nM | 190 nM |
| Cc1nsc(Nc2cnc(C(F)(F)F)cn2)c1C(=O)Nc1ccc(N2CCN(CCC(F)(F)F)CC2)cn1 [Example 374, 3-methyl-5-{[5-(trifluoromethyl)pyrazin-2-yl]amino}-N-{5-[4-(3,3,3-trifluoropropyl)piperazin-1-yl]pyridin-2-yl}-1,2-thiazole-4-carboxamide] | 920 nM | 210 nM |
| Cc1nsc(Nc2cnc(C(F)(F)F)cn2)c1C(=O)Nc1ccc(OC[C@@H]2CCCN(CC(F)F)C2)nc1 [Example 375, N-(6-{[(3R)-1-(2,2-difluoroethyl)piperidin-3-yl]methoxy}pyridin-3-yl)-3-methyl-5-{[5-(trifluoromethyl)pyrazin-2-yl]amino}-1,2-thiazole-4-carboxamide] | 300 nM | 200 nM |
| Cc1nsc(Nc2cnc(C(F)(F)F)cn2)c1C(=O)Nc1ccc(OC[C@@H]2CCCN(CC(F)(F)F)C2)nc1 [Example 376, 3-methyl-N-(6-{[(3R)-1-(2,2,2-trifluoroethyl)piperidin-3-yl]methoxy}pyridin-3-yl)-5-{[5-(trifluoromethyl)pyrazin-2-yl]amino}-1,2-thiazole-4-carboxamide] | 310 nM | 44 nM |
| Cc1nsc(Nc2cnc(C(F)(F)F)cn2)c1C(=O)Nc1ccc(OC[C@@H]2CCCN(CCC(F)(F)F)C2)nc1 [Example 377, 3-methyl-5-{[5-(trifluoromethyl)pyrazin-2-yl]amino}-N-(6-{[(3R)-1-(3,3,3-trifluoropropyl)piperidin-3-yl]methoxy}pyridin-3-yl)-1,2-thiazole-4-carboxamide] | 370 nM | 88 nM |
| Cc1nsc(Nc2cnc(C(F)(F)F)cn2)c1C(=O)Nc1ccc(O[C@@H]2CCN(CC(F)F)C2)nc1 [Example 379, N-(6-{[(3R)-1-(2,2-difluoroethyl)pyrrolidin-3-yl]oxy}pyridin-3-yl)-3-methyl-5-{[5-(trifluoromethyl)pyrazin-2-yl]amino}-1,2-thiazole-4-carboxamide] | 620 nM | 96 nM |
| Cc1nsc(Nc2cnc(C(F)(F)F)cn2)c1C(=O)Nc1ccc(O[C@@H]2CCN(CC(F)(F)F)C2)nc1 [Example 380, 3-methyl-N-(6-{[(3R)-1-(2,2,2-trifluoroethyl)pyrrolidin-3-yl]oxy}pyridin-3-yl)-5-{[5-(trifluoromethyl)pyrazin-2-yl]amino}-1,2-thiazole-4-carboxamide] | 550 nM | 330 nM |
| Cc1nsc(Nc2cnc(C(F)(F)F)cn2)c1C(=O)Nc1ccc(O[C@@H]2CCN(CCC(F)(F)F)C2)nc1 [Example 381, 3-methyl-5-{[5-(trifluoromethyl)pyrazin-2-yl]amino}-N-(6-{[(3R)-1-(3,3,3-trifluoropropyl)pyrrolidin-3-yl]oxy}pyridin-3-yl)-1,2-thiazole-4-carboxamide] | 410 nM | 140 nM |
| Cc1nsc(Nc2cnc(C(F)(F)F)cn2)c1C(=O)Nc1ccc(O[C@H]2CCN(CC(F)F)C2)nc1 [Example 382, N-(6-{[(3S)-1-(2,2-difluoroethyl)pyrrolidin-3-yl]oxy}pyridin-3-yl)-3-methyl-5-{[5-(trifluoromethyl)pyrazin-2-yl]amino}-1,2-thiazole-4-carboxamide] | 180 nM | 45 nM |
| Cc1nsc(Nc2cnc(C(F)(F)F)cn2)c1C(=O)Nc1ccc(O[C@H]2CCN(CC(F)(F)F)C2)nc1 [Example 383, 3-methyl-N-(6-{[(3S)-1-(2,2,2-trifluoroethyl)pyrrolidin-3-yl]oxy}pyridin-3-yl)-5-{[5-(trifluoromethyl)pyrazin-2-yl]amino}-1,2-thiazole-4-carboxamide] | 280 nM | 27 nM |
| Cc1nsc(Nc2cnc(C(F)(F)F)cn2)c1C(=O)Nc1ccc(O[C@H]2CCN(CCC(F)(F)F)C2)nc1 [Example 384, 3-methyl-5-{[5-(trifluoromethyl)pyrazin-2-yl]amino}-N-(6-{[(3S)-1-(3,3,3-trifluoropropyl)pyrrolidin-3-yl]oxy}pyridin-3-yl)-1,2-thiazole-4-carboxamide] | 340 nM | 32 nM |
